Experimental findings from patent US12668803B2, “Glypican-3-specific modified aptamer and use thereof” (APTAMER SCIENCES INC., priority 2019, dated 2026) are described below.

Common to all, as to assay type: cell-based
Data set [1] has as its system squamous cell carcinoma cells (A431). Briefly: Cell cycle analysis (propidium iodide, FACS). The conditions noted are these: 4 hr treatment, FIG. 27. Here is the method: (§1) To analyze the effects of combi 4 and combi 5 bound with three or five gemcitabines on the cell cycle of hepatoma cells, cell cycle analysis was performed. In detail, Hep3B, HepG2, and A431 cells were seeded in a 6-well plate at a density of 1×10^6/ml, and cultured using a DMEM medium containing 10% FBS and 1% antibiotics (penicillin/streptomycin) under conditions of 5% CO2 and 37° C., respectively. Next day, 100 μM of the modified aptamer stock was mixed with 5×SB18 buffer to prepare the aptamer at a concentration of 80 μM, and heated at 95° C. for 5 min, and then cooled at room temperature for 15 min or more. The medium was removed from the cultured cells, and replaced by a serum-free medium, and cultured under conditions of 37° C. and 5% CO2 for 1 hr. The serum-free medium was removed, and then the cells were washed with 2 ml of 1×PBS. 2 ml of KRPH buffer was added, and cultured under conditions of 37° C. and 5% CO2 for 1 hr. The aptamer was added, and cultured under conditions of 37° C. and 5% CO2 for 4 hr. The KRPH buffer was removed, and 2 ml of 1×PBS was added thereto to perform washing, and then PBS was removed. 2 ml of 1×PBS was added, and cells were scraped using a scraper, and collected in FACs tubes, followed by centrifugation at 4° C. and 2000 rpm for 4 minutes. 1/500-fold diluted RNAase A and propidium iodide diluted with PBS at a concentration of 50 μg/ml were added to the FACs tubes at a volume of 500 μL, followed by pipetting. Incubation was performed at room temperature for 30 min while blocking the light, and then cell cycle was measured.

The test system of data set [2] is hepatoma cells (Hep3B, HepG2). The data set can be described thus: Cell cycle analysis (propidium iodide, FACS). Conditions: 4 hr treatment, FIGS. 25 and 26. Here is the method:
as §1

Another data set relates to Huh 7 cells. The data set can be described thus: Cell binding analysis of Cy5-labeled aptamers (FACS). The conditions noted are these: three vs five gemcitabines bound, method of Example 2-1, FIG. 19. The protocol: (§2) The 12-10 aptamer and 5 aptamer libraries prepared by truncating the 12-10 aptamer at various lengths [12-10 (40-mer), 12-12 (35-mer), 12-11 (29-mer), 12-13 (24-mer), 12-14 (23-mer), 12-15 (18-mer)] were subjected to cell binding analysis. Each aptamer sequence was labeled with Cy5 at the 5′ end thereof according to the method of Example 1-1. Huh 7 cells (ATCC, Rockville, MD, USA) were seeded at a density of 2×10^6/mL in a 100 mm^2 culture plate, and cultured using a DMEM medium (Gibco, Grand Island, NY, USA) containing 10% FBS (Gibco, Grand Island, NY, USA) and 1% antibiotics (penicillin/streptomycin) under conditions of 5% CO2 and 37° C. 5 μM of the aptamer stock was mixed with 5×SB18 buffer to prepare the aptamer at a concentration of 4 μM, and heated at 95° C. for 5 min, and then cooled at room temperature for 15 min or more. 4 μM of the aptamer was diluted with KRPH buffer (20 mM HEPES, 5 mM KH2PO4, 1 mM MgSO4, 1 mM CaCl2, 136 mM NaCl, 4.7 mM KCl, pH 7.4) at a concentration of 25 nM. The culture medium was removed from the cultured cells, and 4 mL of phosphate-buffered saline (PBS) was added thereto, followed by washing, and then 4 mL of PBS was removed. 4 mL of cold PBS or warm PBS was added, and cells were scraped using a scraper, and collected in tubes, followed by pipetting. The cells were divided and added to fluorescence-activated cell sorting (FAC) tubes according to the number of samples, followed by centrifugation at 4° C. and 2000 rpm for 4 min. After removing the supernatant, each 500 μL of 25 nM aptamer and control (31-08 (40-mer) aptamer) were added to 15 mL of KRPH buffer, followed by pipetting. The tube was covered with foil to block the light, followed by incubation at 4° C. for 30 min. After incubation, centrifugation was performed at 4° C. and 2000 rpm for 4 min, and the supernatant was removed. 2 mL of cold 1×PBS was added, washed, centrifuged at 4° C. and 2000 rpm for 4 min, and the supernatant was removed. This process was repeated three times. […] Cy5 was measured at […]. […]

Data set [3] relates to GPC3-expressing hepatoma cells. Briefly: Cell-killing effect (CCK-8) of gemcitabine-bound combi aptamers. Conditions: FIG. 23 and FIG. 24. Here is the method: In detail, Huh-7 cells (ATCC, Rockville, MD, USA) were seeded in a 96-well plate at a density of 1×10^4/mL, and cultured using a DMEM (Gibco, Grand Island, NY, USA) medium containing 10% FBS (Gibco, Grand Island, NY, USA) and 1% antibiotics (penicillin/streptomycin) under conditions of 5% CO2 and 37° C. Next day, the aptamer stock (100 μM) was mixed with 5×SB18 buffer to prepare the stock at a concentration of 80 μM, and heated at 95° C. for 5 min, and then cooled at room temperature for 15 min or more. The medium was removed from the cultured cells, and 100 μL of a serum-free medium was added thereto, and cultured under conditions of 37° C. and 5% CO2 for 1 hr. The serum-free medium was removed, and then the cells were washed with 100 μL of 1×PBS. 100 μL of KRPH buffer was added, and cultured under conditions of 37° C. and 5% CO2 for 1 hr. The aptamer was diluted with KRPH buffer to 2-fold of the desired concentration, and added to a 96-well plate at 1× concentration, and cultured under conditions of 37° C. and 5% CO2 for 4 hr. After treatment with the aptamer, the KRPH buffer was removed, and then 100 μL of culture medium was added and cultured under conditions of 37° C. and 5% CO2 for […]. 6 days later, 10 μL of a kit solution of CCK-8 (Cell Counting Kit-8) was added to each well, and then cultured under conditions of 37° C. and 5% CO2 for 3 hr. Cell death levels were examined at […] using a microplate reader.

A further data set concerns HepG2. Briefly: Cellular internalization of gemcitabine-bound chemically optimized aptamers. The conditions noted are these: analysis in HepG2 and A431 cells, FIGS. 20 to 22. Here is the method: [The source words this procedure for another cell line and reports this cell line under the same test.] 5 aptamer libraries prepared by truncating the 12-10 aptamer at various lengths [12-12 (35-mer), 12-11 (29-mer), 12-13 (24-mer), 12-14 (23-mer), and 12-15 (18-mer)] were subjected to cellular internalization analysis. In detail, a 6-well plate was prepared, and a round cover glass was placed in the 6-well plate. Huh-7 cells were cultured in the 6-well plate according to the method of Example 1-3. 5 μM of the aptamer stock was mixed with 5×SB18 buffer to prepare the aptamer at a concentration of 4 μM, and heated at 95° C. for 5 min, and then cooled at room temperature for 15 min or more. The next day, the medium was removed from the cultured cells, and a serum-free medium was added thereto, and cultured under conditions of 37° C. and 5% CO2 for 1 hr. The serum-free medium was removed, and then the cells were washed with 2 mL of 1×PBS. KRPH buffer was added, and cultured under conditions of 37° C. and 5% CO2 for 1 hr. 4 μM aptamer was diluted to 25 nM, and then cultured under conditions of 37° C. and 5% CO2 for 1 hr or 4 hr. Washing was repeated three times with 2 mL of 1×PBS. Washing was performed in a shaker at room temperature for 10 min while blocking the light. Thereafter, the cells were fixed by treatment with 4% paraformaldehyde at 4° C. for 10 min. Washing was repeated three times with 2 mL of 1×PBS. […]

The subject of a further data set is HepG2 cell. Briefly: Cell binding analysis of chemically optimized aptamers. Conditions: combi 1 to combi 5, FIG. 16. Here is the method:
[The source words this procedure for another cell line and reports this cell line under the same test.] as §2, with “4 mL of cold PBS or warm PBS was added, and cells were scraped using a scraper, and collected in tubes, followed by pipetting.” left out, “min.” for “min. After removing the supernatant, each 500 μL of 25 nM aptamer and control (31-08 (40-mer) aptamer) were added to 15 mL of KRPH buffer, followed by pipetting. The tube was covered with foil to block the light, followed by incubation at 4° C. for 30 min. After incubation, centrifugation was performed at 4° C. and 2000 rpm for 4 min, and the supernatant was removed. 2 mL of cold 1×PBS was added, washed, centrifuged at 4° C. and 2000 rpm for 4 min, and the supernatant was removed. This process was repeated three times.”

Another data set relates to Hep3B. The data set can be described thus: Cellular internalization of chemically optimized aptamers (FIG. 17A). Conditions: combi 1 to combi 5, FIG. 17A.

“Combi 4 G(3) (DNA GNGAANGCGNNGAANNANGYSSSNNCAGNCANCAC; gemcitabines, 2'-OMe, 2'-F, BzdU, 3' idT; Combi 4 G(3); (1)..(1) G is 2-O-Methoxy-DNA.; (2)..(2) n is BzdU.; (3)..(3) G is 2-O-Methoxy-DNA.; (4)..(4) A is 2-Fluorine-DNA.; (5)..(5) A is 2-Fluorine-DNA.; (6)..(6) n is BzdU.; (10)..(10) n is BzdU.; (11)..(11) n is BzdU.; (12)..(12) G is 2-Fluorine-DNA.; (13)..(13) A is 2-Fluorine-DNA.; (14)..(14) A is 2-Fluorine-DNA.; (15)..(15) n is BzdU.; (16)..(16) n is BzdU.; (17)..(17) A is 2-Fluorine-)”: the cell cycle arrest result in data set [1] is reported as “no cell cycle arrest”; in data set [2] it was “arrested hepatoma cells at the G1/S phase”. The cell binding ability result in the data set on Huh 7 cells is given as “excellent cell binding ability”. Also, the “concentration from which a cell-killing effect is shown” value in data set [3] stood at 100 nM. Also, in the data set on HepG2, the cellular internalization entry is “excellent cellular internalization”.

As for “Combi 5: SEQ ID NO: 14, chemically optimized 12-12 aptamer (G_{Me}nG_{Me}A_{F}A_{F}nGCGnnG_{F}A_{F}A_{Me}nnA_{Me}nWYC_{F}C_{F}C_{F}nnCAG_{Me}nCAnC_{F}A_{Me}C_{F}; 2'-F and 2'-OMe units, modified bases n, W, Y undefined, 3' idT, as printed in the source, key not given here)”, in the data set with HepG2 cell, the HepG2 cell binding entry is “most similar to that of 12-12”. Also, in the data set on Hep3B, the Hep3B cellular internalization result was “highest”.
